# According to ChEMBL document CHEMBL1152679, “The lifespan-promoting effect of acetic acid and Reishi polysaccharide” (2009):
# The source made the active and inactive calls. No cut-off for these calls is given here.
# Tested on: Caenorhabditis elegans
# Assay: Longevity-promoting activity in wild type Caenorhabditis elegans N2 assessed as increase in lifespan at 50 ppm by microscopic analysis
# Type: functional, organism-based
row,SMILES,Activity
1,O=C(O)CC(O)(CC(=O)O)C(=O)O,inactive
2,CC(=O)O,Active
3,O=C(O)c1ccccc1,inactive
